Drawing on PubChem BioAssay (NCI), this text covers TGI for 15 compounds.

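Five compound concentrations were applied to cells in 96-well plates for 48 hours; endpoints were derived by simple linear interpolation of the resulting dose-response curve. TGI is the concentration that stops growth completely.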

Test systems include SF-295 CNS; UACC-257 melanoma; SK-MEL-5 melanoma; SF-268 CNS; SK-MEL-28 melanoma; SF-539 CNS; NCI-H460 lung; CCRF-CEM leukemia; TK-10 renal; M14 melanoma; IGROV1 ovarian; 786-0 renal; HOP-62 NSCLC; OVCAR-8 ovarian; NCI-H522 lung; MDA-MB-231 breast; DU-145 prostate; T-47D breast; PC-3 prostate.
Experiment in all cases: inhibition of tumour cell growth, NCI panel, 48 h

Consider `CCOC(=O)Nc1cc2nnc(-c3ccccc3)nc2c(N)n1`, for which the TGI was 15.2 µM in the assay with SF-295 CNS; above 100 µM in the assay on UACC-257 melanoma; 35.7 µM with SK-MEL-5 melanoma; above 100 µM in the assay with SF-268 CNS; above 100 µM in the assay with SK-MEL-28 melanoma; 61.9 µM in the assay with SF-539 CNS. Also, the TGI is 29.8 µM in the assay with NCI-H460 lung; above 100 µM in the assay on CCRF-CEM leukemia; above 100 µM in the assay on TK-10 renal; above 100 µM with M14 melanoma; above 100 µM in the assay with IGROV1 ovarian; 27.1 µM in the assay with 786-0 renal. For the same compound, the TGI with HOP-62 NSCLC stood at 37.6 µM; in the assay on OVCAR-8 ovarian, 76.4 µM.
`CCC(C)n1c(C)nc2c1C(=O)c1ccccc1C2=O` (stereo not given): the TGI in the assay with SF-295 CNS is above 100 µM; in the assay on UACC-257 melanoma, 93.8 µM; in the assay on SK-MEL-5 melanoma, above 100 µM; in the assay with SF-268 CNS it was above 100 µM; in the assay with SK-MEL-28 melanoma, above 100 µM; with SF-539 CNS it was above 100 µM. Also, the TGI is 50.8 µM in the assay with NCI-H460 lung; above 100 µM in the assay on CCRF-CEM leukemia; above 100 µM with TK-10 renal; above 100 µM in the assay on M14 melanoma; above 100 µM with IGROV1 ovarian; above 100 µM in the assay on NCI-H522 lung. Further, the TGI with 786-0 renal, in the assay with HOP-62 NSCLC and in the assay on OVCAR-8 ovarian was above 100 µM each time.
In the case of `Nc1ccc(S(=O)(=O)Nc2nnc(S(N)(=O)=O)s2)cc1`, the TGI with SF-295 CNS, in the assay with SF-268 CNS, with SF-539 CNS, in the assay on MDA-MB-231 breast, in the assay on NCI-H460 lung and in the assay on TK-10 renal was above 100 µM in each case. For the same compound, the TGI with DU-145 prostate, with M14 melanoma, in the assay on NCI-H522 lung, in the assay with 786-0 renal and in the assay with T-47D breast was above 100 µM in each case.
`Cc1cc(N(CCC#N)CCC#N)ccc1/C=C1N=C(/C=C\c2ccccc2)OC\1=O`: the TGI with SF-295 CNS, in the assay on UACC-257 melanoma, with SK-MEL-5 melanoma, in the assay with SF-268 CNS, in the assay with SK-MEL-28 melanoma and in the assay with SF-539 CNS was above 100 µM throughout. The TGI with NCI-H460 lung, in the assay with CCRF-CEM leukemia, in the assay with TK-10 renal, in the assay with M14 melanoma, in the assay with IGROV1 ovarian and in the assay on NCI-H522 lung was above 100 µM in each case. Moreover, the TGI in the assay with 786-0 renal, in the assay on HOP-62 NSCLC and with OVCAR-8 ovarian was above 100 µM throughout.
Consider `CCNC(C)Cc1ccccc1` (stereo not given), for which the TGI with SF-295 CNS, in the assay on UACC-257 melanoma, with SK-MEL-5 melanoma, in the assay with SF-268 CNS, in the assay with SK-MEL-28 melanoma and in the assay with SF-539 CNS was above 100 µM in each case. Moreover, the TGI in the assay with NCI-H460 lung, with CCRF-CEM leukemia, in the assay on TK-10 renal, in the assay with M14 melanoma, with IGROV1 ovarian and in the assay with NCI-H522 lung was above 100 µM in each case. In addition, the TGI with 786-0 renal, in the assay on HOP-62 NSCLC and with OVCAR-8 ovarian was above 100 µM throughout.
With `O=C(Nc1c(O)[nH]c(=S)[nH]c1=O)c1ccccc1F`, the TGI with SF-295 CNS, in the assay with UACC-257 melanoma, in the assay on SK-MEL-5 melanoma, in the assay on SF-268 CNS, in the assay on SK-MEL-28 melanoma and with SF-539 CNS was above 100 µM throughout. Also, the TGI with NCI-H460 lung, in the assay with CCRF-CEM leukemia, with TK-10 renal, in the assay with M14 melanoma, in the assay on IGROV1 ovarian and in the assay on NCI-H522 lung was above 100 µM throughout. In addition, the TGI with 786-0 renal, with HOP-62 NSCLC and in the assay with OVCAR-8 ovarian was above 100 µM throughout.
As for `ON/N=C/c1cc2c(cc1Br)OCO2`, the TGI with SF-295 CNS, in the assay on UACC-257 melanoma, in the assay with SK-MEL-5 melanoma, in the assay on SF-268 CNS, with SK-MEL-28 melanoma and with SF-539 CNS was above 386 µM each time. Also, the TGI with NCI-H460 lung, in the assay on CCRF-CEM leukemia, in the assay on TK-10 renal, in the assay on IGROV1 ovarian, with NCI-H522 lung and in the assay with 786-0 renal was above 386 µM in each case. Moreover, the TGI with HOP-62 NSCLC and in the assay on OVCAR-8 ovarian was above 386 µM in each case.
Consider `COc1ccc2nc3cc(Cl)ccc3c(NCCCN(Cc3cc(OC)c(OC)c(OC)c3)Cc3cc(OC)c(OC)c(OC)c3)c2c1`, for which the TGI with SF-295 CNS came to 12.1 µM; in the assay on UACC-257 melanoma, 28.8 µM; in the assay with SK-MEL-5 melanoma, 2.61 µM; in the assay on SF-268 CNS it was 41.7 µM; in the assay with SK-MEL-28 melanoma, 33.2 µM; in the assay with SF-539 CNS it was 10.5 µM. Moreover, the TGI in the assay with MDA-MB-231 breast was 10.6 µM; in the assay on NCI-H460 lung, 23.6 µM; with PC-3 prostate it was 30.6 µM; in the assay on TK-10 renal it was 44.1 µM; with DU-145 prostate, 27.3 µM; in the assay on M14 melanoma it was 3.45 µM. Also, the TGI was 35.1 µM in the assay on IGROV1 ovarian; 25.4 µM in the assay with NCI-H522 lung; 32.1 µM with 786-0 renal; 24.4 µM with HOP-62 NSCLC; 47.4 µM in the assay with T-47D breast; 25.5 µM with OVCAR-8 ovarian.
On to `C/C(CN1C(=O)c2ccccc2C1=O)=N\NS(=O)(=O)c1ccc(C)cc1`, for which the TGI in the assay with SF-295 CNS, with UACC-257 melanoma, in the assay with SK-MEL-5 melanoma, in the assay with SF-539 CNS, with NCI-H460 lung and with CCRF-CEM leukemia was above 100 µM each time. The TGI in the assay with TK-10 renal, in the assay on M14 melanoma, with IGROV1 ovarian, in the assay on NCI-H522 lung, in the assay on 786-0 renal and with HOP-62 NSCLC was above 100 µM in each case. This compound also displayed a TGI in the assay on OVCAR-8 ovarian above 100 µM.
As to `O=C(/C=C/c1ccc(OCCCOc2ccc(/C=C/C(=O)c3ccccc3)cc2)cc1)c1ccccc1`, the TGI with SF-295 CNS, in the assay with UACC-257 melanoma, in the assay with SK-MEL-5 melanoma, in the assay on SF-268 CNS, in the assay with SK-MEL-28 melanoma and with SF-539 CNS was above 100 µM in each case. The TGI in the assay with NCI-H460 lung, with CCRF-CEM leukemia, with TK-10 renal, with M14 melanoma, in the assay with IGROV1 ovarian and with 786-0 renal was above 100 µM each time. Besides, the TGI in the assay with HOP-62 NSCLC and with OVCAR-8 ovarian was above 100 µM each time.
For the compound `Cc1ccc(S(=O)(=O)c2c(N)c3nc4ccccc4n3c3nc4ccccc4nc23)cc1`, the TGI in the assay with SF-295 CNS, in the assay with UACC-257 melanoma, in the assay with SK-MEL-5 melanoma, in the assay on SF-268 CNS, in the assay on SK-MEL-28 melanoma and in the assay on SF-539 CNS was above 100 µM throughout. For the same compound, the TGI in the assay with NCI-H460 lung, in the assay with CCRF-CEM leukemia, with M14 melanoma, with IGROV1 ovarian, in the assay with NCI-H522 lung and in the assay on 786-0 renal was above 100 µM in each case. For the same compound, the TGI with HOP-62 NSCLC and in the assay with OVCAR-8 ovarian was above 100 µM in each case.
With `CN(C)CCOc1cccc2c1C(=O)c1ccccc1C2=O`, the TGI was 29.3 µM in the assay with SF-295 CNS; 25.8 µM with UACC-257 melanoma; 25.3 µM in the assay on SK-MEL-5 melanoma; 27.3 µM with SF-268 CNS; 28.6 µM in the assay with SK-MEL-28 melanoma; 22.6 µM in the assay on SF-539 CNS. Moreover, the TGI in the assay with NCI-H460 lung stood at 19.2 µM; in the assay with CCRF-CEM leukemia it was 64.9 µM; in the assay with TK-10 renal, 66.6 µM; in the assay on M14 melanoma, 26.3 µM; with IGROV1 ovarian, 43.4 µM; in the assay on NCI-H522 lung, 20.5 µM. For the same compound, the figures for the TGI in the assay with 786-0 renal, with HOP-62 NSCLC and in the assay on OVCAR-8 ovarian were 52 µM, 30.9 µM and 56 µM, respectively.
In the case of `CCc1ccc(N=Cc2cc(OC)c(OC)c(OC)c2)cc1`, the TGI in the assay on SF-295 CNS, in the assay with UACC-257 melanoma, in the assay with SK-MEL-5 melanoma, in the assay on SF-268 CNS, in the assay on SK-MEL-28 melanoma and in the assay on SF-539 CNS was above 100 µM in each case. Moreover, the TGI in the assay with NCI-H460 lung, in the assay with CCRF-CEM leukemia, with TK-10 renal, with M14 melanoma, in the assay with IGROV1 ovarian and in the assay with NCI-H522 lung was above 100 µM in each case. The TGI in the assay on 786-0 renal, with HOP-62 NSCLC and with OVCAR-8 ovarian was above 100 µM each time.
`CC(=O)OC12/C(=N/O)CCCCCC1c1ccccc12` (stereo not given): the TGI in the assay with SF-295 CNS, in the assay on UACC-257 melanoma, in the assay with SK-MEL-5 melanoma, with SF-268 CNS, in the assay with SK-MEL-28 melanoma and with NCI-H460 lung was above 100 µM in each case. In addition, the TGI in the assay with CCRF-CEM leukemia was 92.3 µM; in the assay with TK-10 renal, above 100 µM; in the assay on NCI-H522 lung, 98.9 µM; in the assay on 786-0 renal, above 100 µM; in the assay with HOP-62 NSCLC it was above 100 µM; in the assay with OVCAR-8 ovarian it was above 100 µM.
With `Cc1cn(Cc2ccccc2CCO)c(=S)[nH]c1=O`, the TGI in the assay on SF-295 CNS, with UACC-257 melanoma, with SK-MEL-5 melanoma, with SF-268 CNS, with SK-MEL-28 melanoma and with SF-539 CNS was above 100 µM throughout. Also, the TGI with NCI-H460 lung, in the assay on CCRF-CEM leukemia, in the assay with TK-10 renal, in the assay on M14 melanoma, in the assay on IGROV1 ovarian and with NCI-H522 lung was above 100 µM throughout. Also, the TGI in the assay with 786-0 renal, with HOP-62 NSCLC and in the assay with OVCAR-8 ovarian was above 100 µM each time.
